The record followed here is US20210253642A1, “CALPAIN MODULATORS AND THERAPEUTIC USES THEREOF BACKGROUND” (Blade Therapeutics, Inc., priority 2018, published 2021).

What all share (type): biochemical
One assay has as its target T1, Human Calpain 1/NS1 (Homo sapiens, UniProt P07384).
T1 sequence (P07384 1-714): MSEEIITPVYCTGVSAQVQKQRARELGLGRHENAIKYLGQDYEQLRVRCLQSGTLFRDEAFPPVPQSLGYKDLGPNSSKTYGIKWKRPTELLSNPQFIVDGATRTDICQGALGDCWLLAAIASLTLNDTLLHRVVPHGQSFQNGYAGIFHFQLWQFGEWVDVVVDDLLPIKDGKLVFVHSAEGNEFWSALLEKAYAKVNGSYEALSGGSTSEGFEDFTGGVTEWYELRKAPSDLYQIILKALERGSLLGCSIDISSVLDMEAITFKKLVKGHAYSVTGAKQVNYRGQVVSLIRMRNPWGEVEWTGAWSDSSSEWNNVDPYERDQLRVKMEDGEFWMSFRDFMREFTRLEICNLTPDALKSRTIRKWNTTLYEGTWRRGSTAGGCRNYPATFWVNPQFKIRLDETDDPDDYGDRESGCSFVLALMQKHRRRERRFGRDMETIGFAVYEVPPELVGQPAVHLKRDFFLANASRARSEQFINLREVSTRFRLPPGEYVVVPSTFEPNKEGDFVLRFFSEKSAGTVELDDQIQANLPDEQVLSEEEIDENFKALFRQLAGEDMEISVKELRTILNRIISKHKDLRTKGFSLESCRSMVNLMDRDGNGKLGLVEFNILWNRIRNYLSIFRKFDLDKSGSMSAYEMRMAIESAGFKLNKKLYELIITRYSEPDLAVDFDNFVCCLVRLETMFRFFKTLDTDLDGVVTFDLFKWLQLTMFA
T1 sequence (P04632 1-268 partner): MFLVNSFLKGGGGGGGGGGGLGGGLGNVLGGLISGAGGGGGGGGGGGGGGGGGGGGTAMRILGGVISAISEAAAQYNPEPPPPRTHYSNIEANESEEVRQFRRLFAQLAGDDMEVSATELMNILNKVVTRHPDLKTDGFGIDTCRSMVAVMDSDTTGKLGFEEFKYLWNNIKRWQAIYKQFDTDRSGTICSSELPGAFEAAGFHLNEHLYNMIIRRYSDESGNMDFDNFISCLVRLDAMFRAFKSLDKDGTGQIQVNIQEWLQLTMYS
In words: Calpain continuous fluorescence (FRET) inhibition assay. To be noted: Column A; SensoLyte 520 FRET substrate, pH 7.5, 25C. The procedure: (§1) Calpain 1, 2, and 9 activity and inhibition thereof was assessed by means of a continuous fluorescence assay. The SensoLyte 520 Calpain substrate (Anaspec Inc.) was optimized for detecting calpain activity. This substrate contains an internally quenched 5-FAM/QXLTM 520 FRET pair. Calpains 1, 2, and 9 cleave the FRET substrate into two separate fragments resulting in an increase of 5-FAM fluorescence that is proportional to calpain activity
(§2) Assays were typically setup in black 384-well plates using automated liquid handling as follows. Calpain assay base buffer typically contains 50 mM Tris, pH 7.5, 100 mM NaCl and 1 mM DTT. Inhibitors were serially diluted in DMSO and used to setup 2× mixtures with calpains in the aforementioned buffer. After incubation at ambient temperature (25C), the reaction was initiated by adding a 2× mix of the fluorescent peptide substrate and CaCl2) (required for in-situ calpain activation) in the same buffer. Reaction progress curve data were typically collected for 10 min using excitation/emission wavelengths of 490 nm/520 nm on SpectraMax i3x or the FLIPR-Tetra plate readers (Molecular Devices Inc.). Reaction rates were calculated from progress curve slopes typically over 1-5 min. Dose response curves (rate vs. log inhibitor concentration) were typically fit to a 4-parameter logistic function to extract IC50 values.

The next assay has as its target T2, Human Calpain 2/NS1 (Homo sapiens, UniProt P17655).
T2 sequence (P17655 1-700): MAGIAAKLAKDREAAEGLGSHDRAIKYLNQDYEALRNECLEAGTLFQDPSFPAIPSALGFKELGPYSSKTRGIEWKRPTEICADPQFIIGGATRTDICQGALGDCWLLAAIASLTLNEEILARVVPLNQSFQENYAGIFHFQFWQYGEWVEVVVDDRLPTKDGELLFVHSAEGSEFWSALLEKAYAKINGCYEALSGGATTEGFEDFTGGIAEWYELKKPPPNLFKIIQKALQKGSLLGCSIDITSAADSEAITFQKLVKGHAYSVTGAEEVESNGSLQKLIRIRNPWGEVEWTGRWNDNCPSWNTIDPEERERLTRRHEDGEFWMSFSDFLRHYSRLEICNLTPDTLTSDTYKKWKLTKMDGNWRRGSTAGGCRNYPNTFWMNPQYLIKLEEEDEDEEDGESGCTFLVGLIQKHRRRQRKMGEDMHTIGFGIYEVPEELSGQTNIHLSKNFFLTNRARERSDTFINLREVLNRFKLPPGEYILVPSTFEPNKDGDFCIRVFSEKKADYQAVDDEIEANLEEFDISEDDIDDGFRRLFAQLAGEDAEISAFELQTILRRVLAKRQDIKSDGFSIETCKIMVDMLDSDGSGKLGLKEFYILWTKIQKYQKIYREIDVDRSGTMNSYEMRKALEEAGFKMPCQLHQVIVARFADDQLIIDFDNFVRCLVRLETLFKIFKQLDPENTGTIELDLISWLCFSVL
T2 sequence (P04632 1-268 partner): T1 sequence (P04632 1-268 partner)
The description is as above. To be noted: Column B; SensoLyte 520 FRET substrate, pH 7.5, 25C. How it is done: as §1, §2

A further assay concerns the target T3, Human Calpain 9/NS1 (Homo sapiens, UniProt O14815).
T3 sequence (O14815 1-690): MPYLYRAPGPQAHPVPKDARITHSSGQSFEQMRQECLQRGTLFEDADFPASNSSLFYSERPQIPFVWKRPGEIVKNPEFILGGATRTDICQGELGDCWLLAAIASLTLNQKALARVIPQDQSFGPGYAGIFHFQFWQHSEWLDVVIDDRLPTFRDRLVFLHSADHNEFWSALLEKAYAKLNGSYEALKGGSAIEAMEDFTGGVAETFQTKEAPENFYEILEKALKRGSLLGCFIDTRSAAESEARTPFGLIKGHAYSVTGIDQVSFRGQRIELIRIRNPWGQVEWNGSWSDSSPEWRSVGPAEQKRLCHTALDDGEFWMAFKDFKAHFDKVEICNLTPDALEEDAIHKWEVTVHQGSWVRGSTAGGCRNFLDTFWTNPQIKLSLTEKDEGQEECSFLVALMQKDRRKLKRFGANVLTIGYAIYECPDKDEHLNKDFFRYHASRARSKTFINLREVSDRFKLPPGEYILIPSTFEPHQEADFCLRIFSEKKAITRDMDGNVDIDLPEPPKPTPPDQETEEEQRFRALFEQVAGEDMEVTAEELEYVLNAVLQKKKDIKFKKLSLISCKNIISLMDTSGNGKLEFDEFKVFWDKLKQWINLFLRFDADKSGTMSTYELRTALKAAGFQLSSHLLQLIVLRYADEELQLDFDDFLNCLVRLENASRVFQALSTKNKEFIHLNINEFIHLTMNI
T3 sequence (P04632 1-268 partner): T1 sequence (P04632 1-268 partner)
The description is as above. The note with it: Column C; SensoLyte 520 FRET substrate, pH 7.5, 25C. How it is done: as §1, §2

The target in another assay is T4, Human Cathepsin B (Homo sapiens, UniProt P07858).
T4 construct: purchased
In words: Cathepsin continuous fluorescence inhibition assay. The note with it: Column D; enzyme 25 nM, substrate 1 uM, pH 5.0, 30 minutes pre-incubation with inhibitor. How it is done:
(§3) Cathepsin activity and inhibition thereof was assessed by means of a continuous fluorescence assay. All assays were run in 384 well format and utilized peptide substrates that liberate fluorescence upon protease catalyzed cleavage. FLIPR plate readers (Molecular Devices Inc.) were used to monitor reactions and extract initial rates which were then fit (four parameter logistic function) to obtain IC50 values. All enzymes are human. All enzymes and reagents were obtained commercially and are summarized in Tables 1 and 2 below along with assay conditions.

A further assay concerns the target T5, Human Cathepsin K (Homo sapiens, UniProt P43235).
T5 construct: purchased
T5 sequence (P43235 115-329): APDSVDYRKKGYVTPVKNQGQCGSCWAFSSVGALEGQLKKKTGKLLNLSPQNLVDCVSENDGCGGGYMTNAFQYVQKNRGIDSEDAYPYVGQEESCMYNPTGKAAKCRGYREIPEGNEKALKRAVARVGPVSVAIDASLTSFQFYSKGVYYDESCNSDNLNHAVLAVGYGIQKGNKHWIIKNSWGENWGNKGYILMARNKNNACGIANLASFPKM
In words: Cathepsin continuous fluorescence inhibition assay. To be noted: Column E; enzyme 10 nM, substrate 1 uM, pH 5.5, 30 minutes pre-incubation with inhibitor. How it is done:
as §3

In the next assay the target is T6, Human Cathepsin L (Homo sapiens, UniProt P07711).
T6 construct: purchased
T6 sequence (P07711 114-333): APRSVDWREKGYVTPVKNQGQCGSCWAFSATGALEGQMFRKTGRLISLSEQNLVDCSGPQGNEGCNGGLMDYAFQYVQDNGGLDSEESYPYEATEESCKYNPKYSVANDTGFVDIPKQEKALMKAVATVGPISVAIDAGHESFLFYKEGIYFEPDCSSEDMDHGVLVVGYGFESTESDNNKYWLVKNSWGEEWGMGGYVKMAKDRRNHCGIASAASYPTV
Briefly: Cathepsin continuous fluorescence inhibition assay. The note with it: Column G; enzyme 0.025 nM, substrate 1 uM, pH 6.0, 30 minutes pre-incubation with inhibitor. How it is done: as §3

The target of the next assay is T7, Human Cathepsin S (Homo sapiens, UniProt P25774).
T7 construct: purchased
T7 sequence (P25774 115-331): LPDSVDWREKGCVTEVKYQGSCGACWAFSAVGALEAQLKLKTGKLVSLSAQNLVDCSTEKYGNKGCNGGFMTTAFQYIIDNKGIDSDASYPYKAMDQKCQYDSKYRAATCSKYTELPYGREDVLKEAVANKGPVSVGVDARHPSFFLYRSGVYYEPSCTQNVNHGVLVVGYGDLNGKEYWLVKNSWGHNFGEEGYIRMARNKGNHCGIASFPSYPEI
Briefly: Cathepsin continuous fluorescence inhibition assay. The note with it: Column F; enzyme 6 nM, substrate 1 uM, pH 4.5, 30 minutes pre-incubation with inhibitor. The procedure: as §3

Bounds are passed on as bounds.

A word on the IC50: it is the point on the concentration scale where inhibition reaches its midpoint. Read a high IC50 as weaker potency in that assay.

As for `CC(C)[C@@H]1NC(=O)/C=C/[C@@H](NC(=O)[C@@H](NC(=O)[C@H](Cc2ccccc2)NC(=O)OC(C)(C)C)C(C)C)COC(=O)[C@H](Cc2ccc(O)cc2)NC1=O` [Compound 6], the IC50 on Human Calpain 1/NS1 was < 3 µM; against Human Calpain 2/NS1, < 3 µM; against Human Calpain 9/NS1, > 10 µM; on Human Cathepsin B, < 3 µM; against Human Cathepsin K it was < 3 µM; on Human Cathepsin L it was < 3 µM. Further, the IC50 against Human Cathepsin S was < 3 µM.
`CC(C)[C@@H]1NC(=O)/C=C/[C@@H](NC(=O)[C@@H](NC(=O)OC(C)(C)C)C(C)C)COC(=O)[C@H](Cc2ccc(O)cc2)NC1=O` [Compound 2, Tert-butyl ((S)-1-(((3S,6S,11R,E)-3-(4-hydroxybenzyl)-6-isopropyl-2,5,8-trioxo-1-oxa-4,7-diazacyclododec-9-en-11-yl)amino)-3-methyl-1-oxobutan-2-yl)carbamate]: the 50% inhibitory concentration (IC50) was 3 to 10 µM on Human Calpain 1/NS1; < 3 µM on Human Calpain 2/NS1; > 10 µM at Human Calpain 9/NS1; < 3 µM on Human Cathepsin B; < 3 µM against Human Cathepsin K; < 3 µM against Human Cathepsin L. Besides, on Human Cathepsin S, the IC50 was < 3 µM.
On to `CCCCCC/C=C\CC(=O)N[C@@H](Cc1ccc(O)cc1)C(=O)N[C@H](C(=O)N[C@@H]1/C=C/C(=O)N[C@@H](C(C)C)C(=O)N[C@@H](Cc2ccc(O)cc2)C(=O)OC1)C(C)C` [Compound 18, (Z)—N—((S)-1-(((S)-1-(((3S,6S,11R,E)-3-(4-hydroxybenzyl)-6-isopropyl-2,5,8-trioxo-1-oxa-4,7-diazacyclododec-9-en-11-yl)amino)-3-methyl-1-oxobutan-2-yl)amino)-3-(4-hydroxyphenyl)-1-oxopropan-2-yl)dec-3-enamide], for which the concentration for half-maximal inhibition (IC50) was < 3 µM against Human Calpain 1/NS1; < 3 µM against Human Calpain 2/NS1; > 10 µM against Human Calpain 9/NS1; < 3 µM at Human Cathepsin B; < 3 µM against Human Cathepsin K; < 3 µM against Human Cathepsin L. In addition, the IC50 against Human Cathepsin S was < 3 µM.
As for `CC(C)[C@@H]1NC(=O)/C=C/[C@@H](NC(=O)OC(C)(C)C)COC(=O)[C@H](C)NC1=O` [Compound 15, tert-butyl ((3S,6S,11R,E)-6-isopropyl-3-methyl-2,5,8-trioxo-1-oxa-4,7-diazacyclododec-9-en-11-yl)carbamate], the half-inhibitory concentration (IC50) is > 10 µM on Human Calpain 1/NS1; > 10 µM at Human Calpain 2/NS1; > 10 µM against Human Calpain 9/NS1; 3 to 10 µM at Human Cathepsin B; < 3 µM at Human Cathepsin K; < 3 µM against Human Cathepsin L. Moreover, at Human Cathepsin S, the IC50 was < 3 µM.
As to `CC(C)[C@@H]1NC(=O)/C=C/[C@@H](NC(=O)[C@@H](NC(=O)[C@H](Cc2ccc(O)cc2)NC(=O)OC(C)(C)C)C(C)C)COC(=O)[C@H](C)NC1=O` [Compound 17, Tert-butyl ((S)-3-(4-hydroxyphenyl)-1-(((S)-1-(((3S,6S,11R,E)-6-isopropyl-3-methyl-2,5,8-trioxo-1-oxa-4,7-diazacyclododec-9-en-11-yl)amino)-3-methyl-1-oxobutan-2-yl)amino)-1-oxopropan-2-yl)carbamate], the half-inhibitory concentration (IC50) was < 3 µM at Human Calpain 1/NS1; < 3 µM at Human Calpain 2/NS1; > 10 µM against Human Calpain 9/NS1; < 3 µM at Human Cathepsin B; < 3 µM at Human Cathepsin K; < 3 µM at Human Cathepsin L. For the same compound, the IC50 against Human Cathepsin S is < 3 µM.
Regarding `CC(C)[C@@H]1NC(=O)/C=C/[C@@H](NC(=O)[C@@H](NC(=O)[C@H](Cc2ccc(O)cc2)NC(=O)OC(C)(C)C)C(C)C)COC(=O)[C@H](Cc2ccc(O)cc2)NC1=O` [Compound 3, Tert-butyl ((S)-1-(((S)-1-(((3S,6S,11R,E)-3-(4-Hydroxybenzyl)-6-isopropyl-2,5,8-trioxo-1-oxa-4,7-diazacyclododec-9-en-11-yl)amino)-3-methyl-1-oxobutan-2-yl)amino)-3-(4-hydroxyphenyl)-1-oxopropan-2-yl)carbamate], the IC50 on Human Calpain 1/NS1 is < 3 µM; against Human Calpain 2/NS1, < 3 µM; on Human Calpain 9/NS1, > 10 µM; at Human Cathepsin B, < 3 µM; against Human Cathepsin K, < 3 µM; on Human Cathepsin L it was < 3 µM. Besides, the IC50 against Human Cathepsin S is < 3 µM.
